Results taken from patent US4598077A, “Amidine derivatives and cardiotonic compositions” (Torii & Co. Ltd., priority 1983, dated 1986).
Counter-ions that a name gives are not always drawn. Like-named read-outs stand apart in the source and are kept apart here.

How the values were obtained:
[1] = tested on: anesthetized open-chest dogs; test: Cardiovascular effect in anesthetized open-chest dogs (Table 2); type: in vivo, Mongrel dogs; details: femoral vein; for change in vivo at 0.1 mg/kg / change in vivo at 0.3 mg/kg / change in vivo at 0.03 mg/kg: Canis lupus familiaris, iv; for change in vivo at 0.3 mg/kg / % decrease in aortic flow (in parentheses) / % decrease in cardiac contractility (in parentheses): 0.3 mg/kg
Protocol: Mongrel dogs of either sex weighing 9-15 kg were anesthetized with sodium pentobarbital (30 mg/kg, i.v.). The heart was exposed by thoractomy by the left fifth intercostal incision under artificial respiration. Aortic flow was measured by the probe of electromagnetic flowmeter placed around the ascending aorta. Myocardial contractility was measured by the maximal rate of rise of left ventricular pressure which was recorded from a needle inserted into the ventricular cavity. The systemic blood pressure was measured with a pressure transducer by means of a polyethylene cannular inserted into the femoral artery. The heart rate was recorded by a cardiotrachometer triggered by R wave of electrocargiogram (Lead II). Test compounds were dissolved in vehicle solution and were injected into the femoral vein. The effects of each compound on the cardiac contractility and aortic flow were evaluated as a percentage change in values determined before and after administration of the compound. In Table 2 are shown such changes in terms of the percentage increase after administration.

right atrium preparation = test: Isolated, blood-perfused right atrium preparation, sinus rate (Table 1); design: species or system Mongrel dogs; details: Canis lupus familiaris, close-arterial injection, read-out: Right atrium preparation, % increase in sinus rate; for activation at 0.03 mg: dose 30 μg; for activation at 0.1 mg: dose 100 μg
Protocol: Mongrel dogs of either sex weighting 7.5-10 kg were anesthetized with sodium pentobarbital (30 mg/kg, i.v.). Each animal was given an intravenous dose of sodium heparin (500 units/kg), thereafter, the heart was removed and placed in cold Tyrode solution. The isolated and cross-circulated right atrium and papillary muscle preparations were arranged for perfusion from a donor dog as follows. The donor dog was also anesthetized with sodium pentobarbital (30 mg/kg, i.v.); heparin (500 units/kg) was given intravenously immediately before the perfusion began. (b) The isolated, blood-perfused right atrium preparation. The sinus node artery was cannulated at its origin in the right coronary artery. A right atrial electrogram was obtained from bipolar electrodes which were placed in close proximity to the sinoatrial node. The sinus rate was recorded by a cardiotachometer triggered by the right atrial electrogram. The details of the bloodperfused right atrium preparation have been described by Chiba et al. (Tohoku J. exp. Med., 107, 101-102 (1972) and Kubota and Hashimoto (Naunyn-Schmiedeberg's Arch. Pharmacol., 278, 135-150 (1973)). Each preparation was perfused with the arterial blood from the carotid artery of the donor dog at a constant perfusion pressure of 100 mmHg by means of a peristaltic pump. The venous effluent from the preparations was collected in a reservoir and returned to the donor dog through the jugular vein. Test compounds used in these experiments were dissolved in vehicle solution and were injected closearterially to the preparations. The effects of each compound on the developed tension and sinuo rate were evaluated as a percentage change in values determined before and after administration of the compound. In Table 1 are shown such changes in terms of the percentage increase after administration.

Toxicity (LD50) = details: in vivo, iv; mouse; I.V.
[2] = tested on: papillary muscle preparation; test: Isolated, blood-perfused papillary muscle preparation, developed tension (Table 1); design: species or system Mongrel dogs; details: Canis lupus familiaris, close-arterial injection, read-out: Papillary muscle preparation, % increase in developed tension; for activation at 0.03 mg: dose 30 μg; for activation at 0.1 mg: dose 100 μg
Protocol: Mongrel dogs of either sex weighting 7.5-10 kg were anesthetized with sodium pentobarbital (30 mg/kg, i.v.). Each animal was given an intravenous dose of sodium heparin (500 units/kg), thereafter, the heart was removed and placed in cold Tyrode solution. The isolated and cross-circulated right atrium and papillary muscle preparations were arranged for perfusion from a donor dog as follows. The donor dog was also anesthetized with sodium pentobarbital (30 mg/kg, i.v.); heparin (500 units/kg) was given intravenously immediately before the perfusion began. (a) The isolated, blood-perfused papillary muscle preparation. The anterior septal artery was dissected and cannulated with polyethylene tubing. The tendinous end of the papillary muscle was connected to a strain-gauge transducer by a fine silk thread and the muscles were under about 2 g of resting tension. The papillary muscle preparation was electrically driven at a constant frequency of 120/min with rectangular pulses of 1-3 V and 5 msec duration. The preparation of the blood-perfused papillary muscle has been described in detail by Endoh and Hashimoto Am. J. Physiol, 218, 1459-1463 (1970). Each preparation was perfused with the arterial blood from the carotid artery of the donor dog at a constant perfusion pressure of 100 mmHg by means of a peristaltic pump. The venous effluent from the preparations was collected in a reservoir and returned to the donor dog through the jugular vein. Test compounds used in these experiments were dissolved in vehicle solution and were injected closearterially to the preparations. The effects of each compound on the developed tension and sinuo rate were evaluated as a percentage change in values determined before and after administration of the compound. In Table 1 are shown such changes in terms of the percentage increase after administration.

[3] = read-out: Increase in aortic flow (%)
[4] = read-out: Increase in cardiac contractility (%)

Row | Compound | change in vivo at 0.1 mg/kg [1, 3] [%] | change in vivo at 0.1 mg/kg [1, 4] [%] | change in vivo at 0.3 mg/kg [1, 3] [%] | change in vivo at 0.3 mg/kg [1, 4] [%] | activation at 0.03 mg (right atrium preparation) [%] | activation at 0.1 mg (right atrium preparation) [%] | LD50 (Toxicity (LD50)) [mg/kg] | activation at 0.03 mg [2] [%] | activation at 0.1 mg [2] [%] | change in vivo at 0.03 mg/kg [1, 3] [%] | change in vivo at 0.03 mg/kg [1, 4] [%] | % decrease in aortic flow (in parentheses) [1] [%] | % decrease in cardiac contractility (in parentheses) [1] [%] | activation at 0.3 mg (right atrium preparation; dose 300 μg) [%] | activation at 0.3 mg ([2]; dose 300 μg) [%]
1 | Cl.Cl.N=C(NCCc1ccccc1)c1ccc(CCc2ccc(CN)cc2)cc1 [Compound 5, 4-[2-(4-Aminomethylphenyl)ethyl]-N-(2-phenylethyl)benzamidine dihydrochloride] | 5 | 12.9 | 19.2 | 38.9 | 16 | 17.7 | 57.7 | 33.3 | 53.5 | – | – | – | – | – | –
2 | Cl.Cl.N=C(N)c1ccc(CCc2ccc(CN)cc2)cc1 [Compound 2, 4-[2-(4-Aminomethylphenyl)ethyl]benzamidine dihydrochloride] | 16.1 | 25 | – | – | 10.7 | 21.8 | 40 | 63.8 | 104 | 5 | 7.1 | – | – | – | –
3 | Br.Br.CN=C(NC)c1ccc(CCc2ccc(CN)cc2)cc1 [Compound 14, N,N'-Dimethyl-4-[2-(4-aminomethylphenyl)ethyl]benzamidine dihydrobromide] | 8.7 | 30 | 32.7 | 47.5 | 28.9 | 31.8 | – | 59 | 100 | – | – | -16.3 | -6.8 | – | –
4 | N=C(N)c1ccc(OCc2ccc(CCCN)cc2)c(C(=O)c2ccccc2)c1 [Compound 11, 4-[4-(3-Aminopropyl)benzyloxy]-3-benzoylbenzamidine dihydrochloride] | 7.5 | 14.3 | – | – | 32 | 71.4 | – | 48.8 | 82.5 | – | – | – | – | – | –
5 | COc1cc(CN)ccc1CCc1ccc(C(=N)NCCc2ccccn2)cc1.Cl.Cl.Cl [Compound 19, 4-[2-(4-Aminomethyl-2-methoxyphenyl)ethyl]-N-[2-(2-pyridyl)ethyl]benzamidine trihydrochloride] | 9.2 | 20 | 11.9 | 129 | – | 21.9 | – | – | 72.4 | – | – | -1.2 | -7.1 | 35.8 | 108
6 | CNC(=N)c1ccc(CCc2ccc(CN)cc2)c([N+](=O)[O-])c1.Cl.Cl [Compound 16, 4-[2-(4-Aminomethylphenyl)ethyl]-N-methyl-3-nitrobenzamidine dihydrochloride] | 9 | 32 | 16.3 | 69.4 | 21.9 | 29.7 | – | 26 | 70.2 | – | – | -7.0 | – | – | –
